One data set in a line: LogD (HPLC). In kind it is physicochemical. Particulars: by HPLC; Table 2.
For data set [1], the target named is T1, human recombinant A3AR (expressed in HEK-293 cells) (Homo sapiens, UniProt P0DMS8).
T1 construct: host or cells: HEK-293 cells
T1 sequence (P0DMS8 1-318): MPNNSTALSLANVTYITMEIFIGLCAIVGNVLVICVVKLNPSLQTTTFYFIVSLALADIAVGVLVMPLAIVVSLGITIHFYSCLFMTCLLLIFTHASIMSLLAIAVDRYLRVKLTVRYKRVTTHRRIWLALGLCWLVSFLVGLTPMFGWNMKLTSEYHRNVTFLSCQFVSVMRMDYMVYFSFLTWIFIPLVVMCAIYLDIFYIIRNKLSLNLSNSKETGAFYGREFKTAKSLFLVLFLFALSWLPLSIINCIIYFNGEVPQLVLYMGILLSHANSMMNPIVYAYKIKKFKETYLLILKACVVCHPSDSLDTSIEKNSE
The data set is described as follows: Adenosine receptors antagonism assay (Eurofins), [125I]-AB-MECA radioligand competition. Format: binding.

The mark [2] stands for this setting: [125I]-AB-MECA 0.15 nM, r.t., 120 min; IC50 from dose-response curves; read-out: Potency Class A3AR.

As usually defined, the chromatographic logD is lipophilicity estimated from chromatographic retention.

Structures are written as SMILES. Read-outs that look alike come from different tables or passages of the source.

Take `COC1CCC(Nc2cc(NCc3ccccc3)c3nnc(C(C)C)n3n2)CC1` (racemic) [compound 120, N8-benzyl-3-isopropyl-N6-(4-methoxycyclohexyl)-[1,2,4]triazolo[4,3-b]pyridazine-6,8-diamine]: in the data set “LogD (HPLC)”, the chromatographic logD was 3.09. For the same compound, the IC50 in data set [1] (setting [2]) fell in the range of 100 to 1000 nM.

In “LogD (HPLC)”, `CC(C)c1nnc2c(NCc3ccccc3)cc(NC3CCCCC3O)nn12` (racemic) [compound 134, racemic trans-2-[[8-(benzylamino)-3-isopropyl-[1,2,4]triazolo[4,3-b]pyridazin-6-yl]amino]cyclohexanol] came in with a chromatographic logD of 2.73. Further, in data set [1] (read-out: Potency Class A3AR; [125I]-AB-MECA 0.15 nM, r.t., 120 min; IC50 from dose-response curves), the IC50 was 10 to 100 nM.

`CC(C)c1nnc2c(NCc3ccccc3)cc(NCC3CCCO3)nn12` (racemic) [compound 142, N8-benzyl-3-isopropyl-N6-(tetrahydrofuran-2-ylmethyl)-[1,2,4]triazolo[4,3-b]pyridazine-6,8-diamine] returned a chromatographic logD in the data set “LogD (HPLC)” of 2.87. Besides, the IC50 in data set [1] (setting [2]) was 100 to 1000 nM.

Consider `CC(C)c1nnc2c(NCc3ccccc3)cc(NC3CCc4ccccc43)nn12` (racemic) [compound 146, N8-benzyl-N6-indan-1-yl-3-isopropyl-[1,2,4]triazolo[4,3-b]pyridazine-6,8-diamine], for which the chromatographic logD in the data set “LogD (HPLC)” amounted to 4.1. The IC50 in data set [1] (setting [2]) is 10 to 100 nM.

For the compound `CC(C)c1nnc2c(NCc3ccccc3)cc(N[C@H]3CC[C@H](O)CC3)nn12` [(135), racemic trans-4-[[8-(benzylamino)-3-isopropyl-[1,2,4]triazolo[4,3-b]pyridazin-6-yl]amino]cyclohexanol], in “LogD (HPLC)”, the chromatographic logD amounted to 2.22.

`CC(C)c1nnc2c(NCc3ccccc3)cc(NC3CCC3)nn12` [compound 117, N8-benzyl-N6-cyclobutyl-3-isopropyl-[1,2,4]triazolo[4,3-b]pyridazine-6,8-diamine] came in with a chromatographic logD in “LogD (HPLC)” of 3.47. For the same compound, the IC50 in data set [1] (setting [2]) was in the range of 10 to 100 nM.

As to `CC(C)c1nnc2c(NCc3ccccc3)cc(NC3CCCC3)nn12` [compound 118, N8-benzyl-N6-cyclopentyl-3-isopropyl-[1,2,4]triazolo[4,3-b]pyridazine-6,8-diamine], the chromatographic logD in “LogD (HPLC)” came to 3.84. Moreover, the IC50 in data set [1] (setting [2]) lay within 1 to 10 nM.

Regarding `CC(C)c1nnc2c(NCc3ccccc3)cc(NC3CCCCC3)nn12` [compound 119, N8-benzyl-N6-cyclohexyl-3-isopropyl-[1,2,4]triazolo[4,3-b]pyridazine-6,8-diamine], the chromatographic logD in the data set “LogD (HPLC)” turned out to be 4.17. Further, in data set [1] (setting [2]), the IC50 is 10 to 100 nM.

`CC(C)c1nnc2c(NCc3ccccc3)cc(NC3CCCCCC3)nn12` [compound 121, N8-benzyl-N6-cycloheptyl-3-isopropyl-[1,2,4]triazolo[4,3-b]pyridazine-6,8-diamine]: the chromatographic logD in “LogD (HPLC)” worked out at 4.57. For the same compound, the IC50 in data set [1] (setting [2]) lay within 10 to 100 nM.

For `CCC(CC)CNc1cc(NCc2ccccn2)c2nnc(C3CC3)n2n1` [compound 196, 3-cyclopropyl-N6-(2-ethylbutyl)-N8-(pyridin-2-ylmethyl)-[1,2,4]triazolo[4,3-b]pyridazine-6,8-diamine], the IC50 in data set [1] (setting [2]) was 1 to 10 nM.

Take `c1ccc(CNc2cc(NC3CC3)nn3c(C4CC4)nnc23)nc1` [compound 197, N6,3-dicyclopropyl-N8-(pyridin-2-ylmethyl)-[1,2,4]triazolo[4,3-b]pyridazine-6,8-diamine]: the IC50 in data set [1] (setting [2]) lay in the range of 10 to 100 nM.

As to `c1ccc(CNc2cc(NC3CCC3)nn3c(C4CC4)nnc23)nc1` [compound 198, N6-cyclobutyl-3-cyclopropyl-N8-(pyridin-2-ylmethyl)-[1,2,4]triazolo[4,3-b]pyridazine-6,8-diamine], the IC50 in data set [1] (setting [2]) was 1 to 10 nM.

For the compound `c1ccc(CNc2cc(NC3CCCC3)nn3c(C4CC4)nnc23)nc1` [compound 199, N6-cyclopentyl-3-cyclopropyl-N8-(pyridin-2-ylmethyl)-[1,2,4]triazolo[4,3-b]pyridazine-6,8-diamine], the IC50 in data set [1] (setting [2]) lay within 1 to 10 nM.

Consider `c1ccc(CNc2cc(NC3CCCCC3)nn3c(C4CC4)nnc23)nc1` [compound 200, N6-cyclohexyl-3-cyclopropyl-N8-(pyridin-2-ylmethyl)-[1,2,4]triazolo[4,3-b]pyridazine-6,8-diamine], for which the IC50 in data set [1] (setting [2]) lay in the range of 1 to 10 nM.

Turning to `c1ccc(CNc2cc(NC3CCCCCC3)nn3c(C4CC4)nnc23)nc1` [compound 201, N6-cycloheptyl-3-cyclopropyl-N8-(pyridin-2-ylmethyl)-[1,2,4]triazolo[4,3-b]pyridazine-6,8-diamine], the IC50 in data set [1] (setting [2]) was 1 to 10 nM.

On to `c1ccc(CNc2cc(NC34CC5CC(CC(C5)C3)C4)nn3c(C4CC4)nnc23)nc1` [compound 202, N6-((3s,5s,7s)-adamantan-1-yl)-3-cyclopropyl-N8-(pyridin-2-ylmethyl)-[1,2,4]triazolo[4,3-b]pyridazine-6,8-diamine], for which the IC50 in data set [1] (setting [2]) fell in the range of 1 to 10 nM.

As for `c1ccc(CNc2cc(NCC3CC3)nn3c(C4CC4)nnc23)nc1` [compound 203, 3-cyclopropyl-N6-(cyclopropylmethyl)-N8-(pyridin-2-ylmethyl)-[1,2,4]triazolo[4,3-b]pyridazine-6,8-diamine], the IC50 in data set [1] (setting [2]) fell in the range of 10 to 100 nM.

With `c1ccc(CNc2cc(NCC3CCC3)nn3c(C4CC4)nnc23)nc1` [compound 204, N6-(cyclobutylmethyl)-3-cyclopropyl-N8-(pyridin-2-ylmethyl)-[1,2,4]triazolo[4,3-b]pyridazine-6,8-diamine], the IC50 in data set [1] (setting [2]) is 1 to 10 nM.

On to `c1ccc(CNc2cc(NC3CC4(CCC4)C3)nn3c(C4CC4)nnc23)nc1` [compound 205, 3-cyclopropyl-N8-(pyridin-2-ylmethyl)-N6-(spiro[3.3]heptan-2-yl)-[1,2,4]triazolo[4,3-b]pyridazine-6,8-diamine], for which, in data set [1] (setting [2]), the IC50 is 1 to 10 nM.

In the case of `CC1(CNc2cc(NCc3ccccn3)c3nnc(C4CC4)n3n2)CCC1` [compound 206, 3-cyclopropyl-N6-((1-methylcyclobutyl)methyl)-N8-(pyridin-2-ylmethyl)-[1,2,4]triazolo[4,3-b]pyridazine-6,8-diamine], the IC50 in data set [1] (setting [2]) was 1 to 10 nM.

`c1ccc(CNc2cc(N3CCCCC3)nn3c(C4CC4)nnc23)nc1` [compound 207, 3-cyclopropyl-6-(1-piperidyl)-N-(2-pyridylmethyl)-[1,2,4]triazolo[4,3-b]pyridazin-8-amine]: the IC50 in data set [1] (setting [2]) is 100 to 1000 nM.

On to `c1ccc(CNc2cc(NCc3ccco3)nn3c(C4CC4)nnc23)nc1` [compound 208, 3-cyclopropyl-N6-(furan-2-ylmethyl)-N8-(pyridin-2-ylmethyl)-[1,2,4]triazolo[4,3-b]pyridazine-6,8-diamine], for which the IC50 in data set [1] (setting [2]) lay in the range of 1 to 10 nM.

With `c1ccc(CNc2cc(NCc3ccoc3)nn3c(C4CC4)nnc23)nc1` [compound 209, 3-cyclopropyl-N6-(furan-3-ylmethyl)-N8-(pyridin-2-ylmethyl)-[1,2,4]triazolo[4,3-b]pyridazine-6,8-diamine], in data set [1] (setting [2]), the IC50 was in the range of 1 to 10 nM.

For the compound `c1ccc(CNc2cc(NCc3cccs3)nn3c(C4CC4)nnc23)nc1` [compound 210, 3-cyclopropyl-N8-(pyridin-2-ylmethyl)-N6-(thiophen-2-ylmethyl)-[1,2,4]triazolo[4,3-b]pyridazine-6,8-diamine], the IC50 in data set [1] (setting [2]) lay within 1 to 10 nM.

Take `CC[C@H](CO)Nc1cc(NCc2ccccn2)c2nnc(C3CC3)n2n1` [compound 211, (R)-2-((3-cyclopropyl-8-((pyridin-2-ylmethyl)amino)-[1,2,4]triazolo[4,3-b]pyridazin-6-yl)amino)butan-1-ol]: in data set [1] (setting [2]), the IC50 was in the range of 10 to 100 nM.

Take `CC[C@@H](CO)Nc1cc(NCc2ccccn2)c2nnc(C3CC3)n2n1` [compound 212, (S)-2-((3-cyclopropyl-8-((pyridin-2-ylmethyl)amino)-[1,2,4]triazolo[4,3-b]pyridazin-6-yl)amino)butan-1-ol]: the IC50 in data set [1] (setting [2]) is 10 to 100 nM.

Regarding `c1ccc(CNc2cc(N[C@@H]3CCOC3)nn3c(C4CC4)nnc23)nc1` [compound 213, (R)-3-cyclopropyl-N8-(pyridin-2-ylmethyl)-N6-(tetrahydrofuran-3-yl)-[1,2,4]triazolo[4,3-b]pyridazine-6,8-diamine], in data set [1] (setting [2]), the IC50 fell in the range of 100 to 1000 nM.

As for `c1ccc(CNc2cc(N[C@@H]3CCCOC3)nn3c(C4CC4)nnc23)nc1` [compound 214, (R)-3-cyclopropyl-N8-(pyridin-2-ylmethyl)-N6-(tetrahydro-2H-pyran-3-yl)-[1,2,4]triazolo[4,3-b]pyridazine-6,8-diamine], the IC50 in data set [1] (setting [2]) is 100 to 1000 nM.

On to `CCC(CC)Nc1cc(Nc2ccc(OC)nn2)c2nnc(C3CC3)n2n1` [compound 215, 3-cyclopropyl-N8-(6-methoxypyridazin-3-yl)-N6-(pentan-3-yl)-[1,2,4]triazolo[4,3-b]pyridazine-6,8-diamine], for which the IC50 in data set [1] (setting [2]) is below 1 nM.

For the compound `CCC(CC)Nc1cc(NCc2cccnn2)c2nnc(C3CC3)n2n1` [compound 216, 3-cyclopropyl-N6-(pentan-3-yl)-N8-(pyridazin-3-ylmethyl)-[1,2,4]triazolo[4,3-b]pyridazine-6,8-diamine], the IC50 in data set [1] (setting [2]) lay within 1 to 10 nM.

For the compound `CCC(CC)Nc1cc(NCCc2ccccc2)c2nnc(C3CC3)n2n1` [compound 217, 3-cyclopropyl-N6-(pentan-3-yl)-N8-phenethyl-[1,2,4]triazolo[4,3-b]pyridazine-6,8-diamine], the IC50 in data set [1] (setting [2]) was 1 to 10 nM.

Regarding `c1ccc(CNc2cc(NCc3ccsc3)nn3c(C4CC4)nnc23)nc1` [compound 218, 3-cyclopropyl-N8-(pyridin-2-ylmethyl)-N6-(thiophen-3-ylmethyl)-[1,2,4]triazolo[4,3-b]pyridazine-6,8-diamine], the IC50 in data set [1] (setting [2]) was 1 to 10 nM.
